Tests used:
Assay in all cases: radiometric filter-binding kinase assay
[1] = target: CDK2 CCNA2 (human) (UniProt P20248+P24941)
[2] = target: INSRR (human) (UniProt P14616)
[3] = target: EPHB2 (human) (UniProt P29323)
[4] = target: MINK1 (human) (UniProt Q8N4C8)
[5] = target: MARK2 (human) (UniProt Q7KZI7)
[6] = target: DYRK2 (human) (UniProt Q92630)
[7] = target: RPS6KA5 KD1 KD2 (human) (UniProt O75582)
[8] = target: CAMKK2 (human) (UniProt Q96RR4)
[9] = test system: PRKAA1 or PRKAA2 (rat); settings: accession and sequence are those of the human protein
[10] = target: INSR (human) (UniProt P06213)
[11] = target: MAPKAPK2 (human) (UniProt P49137)
[12] = target: BRSK1 (human) (UniProt Q8TDC3)
BRSK1 (human), sequence (Q8TDC3 whole entry, looked up): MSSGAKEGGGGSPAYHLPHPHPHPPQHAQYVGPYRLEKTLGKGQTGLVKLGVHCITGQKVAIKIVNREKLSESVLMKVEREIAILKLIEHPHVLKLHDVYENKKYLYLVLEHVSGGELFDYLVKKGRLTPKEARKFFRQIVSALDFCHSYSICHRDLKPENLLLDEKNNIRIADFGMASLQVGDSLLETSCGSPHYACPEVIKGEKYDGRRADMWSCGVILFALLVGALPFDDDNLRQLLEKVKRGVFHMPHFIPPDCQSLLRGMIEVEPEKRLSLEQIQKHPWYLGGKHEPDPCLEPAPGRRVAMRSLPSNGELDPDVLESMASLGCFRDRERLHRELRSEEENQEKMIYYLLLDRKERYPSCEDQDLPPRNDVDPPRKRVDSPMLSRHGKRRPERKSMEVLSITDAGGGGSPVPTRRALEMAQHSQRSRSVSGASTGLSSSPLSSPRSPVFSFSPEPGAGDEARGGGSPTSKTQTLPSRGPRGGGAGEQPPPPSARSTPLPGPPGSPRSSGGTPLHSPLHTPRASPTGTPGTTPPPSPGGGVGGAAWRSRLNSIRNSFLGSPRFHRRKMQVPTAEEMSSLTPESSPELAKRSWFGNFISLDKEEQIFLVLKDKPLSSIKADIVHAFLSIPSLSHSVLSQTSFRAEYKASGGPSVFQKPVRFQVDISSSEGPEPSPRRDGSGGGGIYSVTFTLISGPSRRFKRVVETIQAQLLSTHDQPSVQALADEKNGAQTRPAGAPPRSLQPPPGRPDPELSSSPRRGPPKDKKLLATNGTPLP

[13] = target: NUAK1 (human) (UniProt O60285)
NUAK1 (human), sequence (O60285 whole entry, looked up): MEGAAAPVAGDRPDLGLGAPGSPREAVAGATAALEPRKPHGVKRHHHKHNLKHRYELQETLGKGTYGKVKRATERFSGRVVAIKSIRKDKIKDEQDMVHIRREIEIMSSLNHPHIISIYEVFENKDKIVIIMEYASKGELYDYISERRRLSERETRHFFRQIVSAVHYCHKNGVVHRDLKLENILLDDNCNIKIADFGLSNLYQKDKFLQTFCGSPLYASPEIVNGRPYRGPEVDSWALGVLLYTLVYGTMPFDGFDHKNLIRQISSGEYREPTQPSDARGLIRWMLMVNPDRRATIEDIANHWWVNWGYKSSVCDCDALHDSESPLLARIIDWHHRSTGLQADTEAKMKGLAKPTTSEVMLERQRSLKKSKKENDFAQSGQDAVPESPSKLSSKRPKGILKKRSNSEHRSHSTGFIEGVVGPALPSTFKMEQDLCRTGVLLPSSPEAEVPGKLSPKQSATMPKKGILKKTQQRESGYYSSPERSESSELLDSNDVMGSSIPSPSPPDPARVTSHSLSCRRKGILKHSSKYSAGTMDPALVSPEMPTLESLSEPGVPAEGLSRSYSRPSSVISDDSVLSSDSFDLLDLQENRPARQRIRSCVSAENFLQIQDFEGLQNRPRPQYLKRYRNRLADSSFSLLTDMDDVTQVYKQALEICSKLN

[14] = target: NEK6 (human) (UniProt Q9HC98)
[15] = target: NEK2 (human) (UniProt P51955)
[16] = target: CSK (human) (UniProt P41240)
[17] = target: EPHA2 (human) (UniProt P29317)
[18] = target: PHKG1 (human) (UniProt Q16816)
PHKG1 (human), sequence (Q16816 whole entry, looked up): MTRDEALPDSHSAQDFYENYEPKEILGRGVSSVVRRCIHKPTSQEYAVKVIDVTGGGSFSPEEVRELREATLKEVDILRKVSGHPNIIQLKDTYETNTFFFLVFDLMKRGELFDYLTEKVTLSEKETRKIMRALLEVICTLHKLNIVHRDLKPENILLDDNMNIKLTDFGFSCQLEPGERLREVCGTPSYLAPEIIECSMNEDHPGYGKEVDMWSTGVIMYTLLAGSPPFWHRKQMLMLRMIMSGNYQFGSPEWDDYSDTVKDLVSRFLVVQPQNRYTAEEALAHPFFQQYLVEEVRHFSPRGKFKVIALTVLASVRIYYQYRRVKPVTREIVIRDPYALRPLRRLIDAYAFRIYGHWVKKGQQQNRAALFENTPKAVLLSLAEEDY

[19] = target: CaMK1 (human) (UniProt Q14012)
[20] = target: RIPK2 (human) (UniProt O43353)
[21] = target: JAK2 JH1 JH2 (human) (UniProt O60674)
[22] = target: PRKACA (human) (UniProt P17612)
[23] = target: MAPK15 (human) (UniProt Q8TD08)
[24] = target: MST4 (human) (UniProt Q9P289)
[25] = test system: LCK (mouse); settings: accession and sequence are those of the human protein
[26] = target: MAP2K1 (human) (UniProt Q02750)
MAP2K1 (human), sequence (Q02750 whole entry, looked up): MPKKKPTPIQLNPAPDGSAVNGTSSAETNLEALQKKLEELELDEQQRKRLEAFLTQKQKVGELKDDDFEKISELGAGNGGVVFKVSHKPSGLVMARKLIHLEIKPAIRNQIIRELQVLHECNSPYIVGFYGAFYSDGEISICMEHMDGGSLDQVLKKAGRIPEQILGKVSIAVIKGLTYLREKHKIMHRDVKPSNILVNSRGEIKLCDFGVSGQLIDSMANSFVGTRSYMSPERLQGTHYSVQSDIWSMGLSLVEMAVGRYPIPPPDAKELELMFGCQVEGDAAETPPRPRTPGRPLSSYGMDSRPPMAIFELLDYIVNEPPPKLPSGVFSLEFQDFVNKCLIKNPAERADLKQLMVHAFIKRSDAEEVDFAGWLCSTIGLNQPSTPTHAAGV

[27] = target: MKNK1 (human) (UniProt Q9BUB5)
[28] = target: MARK1 (human) (UniProt Q9P0L2)
[29] = target: HIPK3 (human) (UniProt Q9H422)
[30] = target: PRKCA (human) (UniProt P17252)
[31] = target: SRPK1 (human) (UniProt Q96SB4)
[32] = target: ERBB4 (human) (UniProt Q15303)
[33] = target: BTK (human) (UniProt Q06187)
[34] = target: EPHA4 (human) (UniProt P54764)
[35] = target: PAK7 (human) (UniProt Q9P286)

RPS6KA5 KD1 KD2 (human), sequence (O75582 whole entry, looked up): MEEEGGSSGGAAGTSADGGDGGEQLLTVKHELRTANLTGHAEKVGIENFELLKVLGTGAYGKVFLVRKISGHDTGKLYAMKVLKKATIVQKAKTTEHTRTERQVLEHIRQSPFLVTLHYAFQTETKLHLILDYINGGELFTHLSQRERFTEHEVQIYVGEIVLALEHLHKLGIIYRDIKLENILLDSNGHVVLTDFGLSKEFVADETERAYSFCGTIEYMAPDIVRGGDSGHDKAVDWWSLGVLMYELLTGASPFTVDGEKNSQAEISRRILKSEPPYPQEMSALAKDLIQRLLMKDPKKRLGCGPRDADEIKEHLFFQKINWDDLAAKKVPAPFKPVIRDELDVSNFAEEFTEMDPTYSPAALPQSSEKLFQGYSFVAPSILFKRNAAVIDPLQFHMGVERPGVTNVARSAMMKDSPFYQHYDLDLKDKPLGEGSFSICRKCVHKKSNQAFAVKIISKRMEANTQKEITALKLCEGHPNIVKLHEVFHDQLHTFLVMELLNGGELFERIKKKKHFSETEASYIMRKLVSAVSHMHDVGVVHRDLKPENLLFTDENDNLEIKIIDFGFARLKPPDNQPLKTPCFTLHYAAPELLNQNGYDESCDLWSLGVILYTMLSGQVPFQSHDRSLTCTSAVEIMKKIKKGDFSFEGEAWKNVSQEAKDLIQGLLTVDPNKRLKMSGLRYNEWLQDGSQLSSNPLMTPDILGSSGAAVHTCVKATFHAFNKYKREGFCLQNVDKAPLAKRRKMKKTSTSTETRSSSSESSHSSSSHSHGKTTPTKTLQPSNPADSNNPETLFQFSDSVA
MINK1 (human), sequence (Q8N4C8 whole entry, looked up): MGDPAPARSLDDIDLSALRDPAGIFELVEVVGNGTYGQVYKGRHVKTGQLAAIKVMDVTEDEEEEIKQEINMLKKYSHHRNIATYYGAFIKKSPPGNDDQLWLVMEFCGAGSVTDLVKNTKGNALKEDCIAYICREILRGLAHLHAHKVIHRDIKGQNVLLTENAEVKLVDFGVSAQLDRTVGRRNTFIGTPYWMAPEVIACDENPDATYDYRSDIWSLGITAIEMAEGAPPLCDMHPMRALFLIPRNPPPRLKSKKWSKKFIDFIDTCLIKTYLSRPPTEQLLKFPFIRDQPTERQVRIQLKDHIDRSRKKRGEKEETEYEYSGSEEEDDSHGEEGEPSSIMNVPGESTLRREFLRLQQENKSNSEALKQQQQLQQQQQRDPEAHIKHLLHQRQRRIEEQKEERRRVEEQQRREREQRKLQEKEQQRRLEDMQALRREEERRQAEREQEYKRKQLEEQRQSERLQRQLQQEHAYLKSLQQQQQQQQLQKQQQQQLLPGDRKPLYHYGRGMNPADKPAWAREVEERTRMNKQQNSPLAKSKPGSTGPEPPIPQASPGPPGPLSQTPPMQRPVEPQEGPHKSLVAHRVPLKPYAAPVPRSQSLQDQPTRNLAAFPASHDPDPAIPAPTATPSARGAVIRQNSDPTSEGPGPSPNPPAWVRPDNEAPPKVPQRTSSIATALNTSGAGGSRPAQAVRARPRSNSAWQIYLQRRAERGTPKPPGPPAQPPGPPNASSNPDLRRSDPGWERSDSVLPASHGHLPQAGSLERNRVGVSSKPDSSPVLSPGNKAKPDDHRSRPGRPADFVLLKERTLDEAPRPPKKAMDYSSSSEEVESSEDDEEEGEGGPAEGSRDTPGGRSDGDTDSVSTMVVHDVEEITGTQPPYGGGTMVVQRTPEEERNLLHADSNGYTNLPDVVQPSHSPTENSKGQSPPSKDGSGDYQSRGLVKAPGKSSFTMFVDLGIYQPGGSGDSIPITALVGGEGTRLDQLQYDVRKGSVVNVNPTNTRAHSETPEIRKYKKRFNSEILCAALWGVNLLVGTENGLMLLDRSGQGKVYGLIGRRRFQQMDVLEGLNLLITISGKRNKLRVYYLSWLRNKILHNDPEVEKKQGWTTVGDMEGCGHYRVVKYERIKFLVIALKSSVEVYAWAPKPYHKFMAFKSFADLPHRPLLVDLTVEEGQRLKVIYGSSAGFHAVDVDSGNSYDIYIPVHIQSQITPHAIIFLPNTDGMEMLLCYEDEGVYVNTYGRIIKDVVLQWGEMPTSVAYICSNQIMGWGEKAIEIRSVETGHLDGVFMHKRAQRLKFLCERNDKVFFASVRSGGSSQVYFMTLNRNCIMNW

CCCCCc1ccc(/C=C/[C@H](O)[C@@H](CO)NC)cc1
residual activity ([1]; compound 0.1 µM): 98% | residual activity ([1]; compound 1.0 µM): 79% | residual activity ([1]; compound 10.0 µM): 88% | residual activity ([2]; compound 0.1 µM): 99% | residual activity ([2]; compound 1.0 µM): 94% | residual activity ([2]; compound 10.0 µM): 100% | residual activity ([3]; compound 0.1 µM): 115% | residual activity ([3]; compound 1.0 µM): 105% | residual activity ([3]; compound 10.0 µM): 108% | residual activity ([4]; compound 0.1 µM): 107% | residual activity ([4]; compound 1.0 µM): 93% | residual activity ([4]; compound 10.0 µM): 111% | residual activity ([5]; compound 0.1 µM): 89% | residual activity ([5]; compound 1.0 µM): 97% | residual activity ([5]; compound 10.0 µM): 83% | residual activity ([6]; compound 0.1 µM): 116% | residual activity ([6]; compound 1.0 µM): 124% | residual activity ([6]; compound 10.0 µM): 119% | residual activity ([7]; compound 0.1 µM): 110% | residual activity ([7]; compound 1.0 µM): 104% | residual activity ([7]; compound 10.0 µM): 95% | residual activity ([8]; compound 0.1 µM): 97% | residual activity ([8]; compound 1.0 µM): 81% | residual activity ([8]; compound 10.0 µM): 90% | residual activity ([9]; compound 0.1 µM): 104% | residual activity ([9]; compound 1.0 µM): 96% | residual activity ([9]; compound 10.0 µM): 94% | residual activity ([10]; compound 0.1 µM): 107% | residual activity ([10]; compound 10.0 µM): 99% | residual activity ([11]; compound 0.1 µM): 98% | residual activity ([11]; compound 1.0 µM): 95% | residual activity ([11]; compound 10.0 µM): 91% | residual activity ([12]; compound 0.1 µM): 114% | residual activity ([12]; compound 1.0 µM): 111% | residual activity ([12]; compound 10.0 µM): 97% | residual activity ([13]; compound 0.1 µM): 105% | residual activity ([13]; compound 1.0 µM): 108% | residual activity ([13]; compound 10.0 µM): 101% | residual activity ([14]; compound 0.1 µM): 92% | residual activity ([14]; compound 1.0 µM): 86% | residual activity ([14]; compound 10.0 µM): 84% | residual activity ([15]; compound 0.1 µM): 110% | residual activity ([15]; compound 1.0 µM): 103% | residual activity ([15]; compound 10.0 µM): 108% | residual activity ([16]; compound 0.1 µM): 104% | residual activity ([16]; compound 1.0 µM): 101% | residual activity ([16]; compound 10.0 µM): 98% | residual activity ([17]; compound 0.1 µM): 103% | residual activity ([17]; compound 1.0 µM): 91% | residual activity ([17]; compound 10.0 µM): 91% | residual activity ([18]; compound 0.1 µM): 99% | residual activity ([18]; compound 1.0 µM): 86% | residual activity ([18]; compound 10.0 µM): 76% | residual activity ([19]; compound 0.1 µM): 106% | residual activity ([19]; compound 1.0 µM): 101% | residual activity ([19]; compound 10.0 µM): 89% | residual activity ([20]; compound 0.1 µM): 119% | residual activity ([20]; compound 1.0 µM): 95% | residual activity ([20]; compound 10.0 µM): 100% | residual activity ([21]; compound 0.1 µM): 118% | residual activity ([21]; compound 1.0 µM): 98% | residual activity ([21]; compound 10.0 µM): 100% | residual activity ([22]; compound 0.1 µM): 110% | residual activity ([22]; compound 1.0 µM): 106% | residual activity ([22]; compound 10.0 µM): 107% | residual activity ([23]; compound 0.1 µM): 82% | residual activity ([23]; compound 1.0 µM): 86% | residual activity ([23]; compound 10.0 µM): 77% | residual activity ([24]; compound 0.1 µM): 116% | residual activity ([24]; compound 1.0 µM): 96% | residual activity ([24]; compound 10.0 µM): 108% | residual activity ([25]; compound 0.1 µM): 106% | residual activity ([25]; compound 1.0 µM): 92% | residual activity ([25]; compound 10.0 µM): 84% | residual activity ([26]; compound 0.1 µM): 97% | residual activity ([26]; compound 1.0 µM): 102% | residual activity ([26]; compound 10.0 µM): 97% | residual activity ([27]; compound 0.1 µM): 101% | residual activity ([27]; compound 1.0 µM): 92% | residual activity ([27]; compound 10.0 µM): 93% | residual activity ([28]; compound 0.1 µM): 114% | residual activity ([28]; compound 1.0 µM): 112% | residual activity ([28]; compound 10.0 µM): 104% | residual activity ([29]; compound 0.1 µM): 118% | residual activity ([29]; compound 1.0 µM): 112% | residual activity ([29]; compound 10.0 µM): 102% | residual activity ([30]; compound 0.1 µM): 96% | residual activity ([30]; compound 1.0 µM): 88% | residual activity ([30]; compound 10.0 µM): 89% | residual activity ([31]; compound 0.1 µM): 92% | residual activity ([31]; compound 1.0 µM): 89% | residual activity ([31]; compound 10.0 µM): 83% | residual activity ([32]; compound 0.1 µM): 127% | residual activity ([32]; compound 10.0 µM): 105% | residual activity ([33]; compound 1.0 µM): 103% | residual activity ([33]; compound 10.0 µM): 103% | residual activity ([34]; compound 0.1 µM): 100% | residual activity ([34]; compound 1.0 µM): 101% | residual activity ([34]; compound 10.0 µM): 96% | residual activity ([35]; compound 0.1 µM): 104% | residual activity ([35]; compound 1.0 µM): 100% | residual activity ([35]; compound 10.0 µM): 101%

From the kinase profiling compilation of Christmann-Franck et al. (2016)
